From patent publication EP0403172A2, “Purified enzyme and process therefor” (OKLAHOMA STATE UNIVERSITY, priority 1989, dated 1990)
Read-outs that look alike come from different tables or passages of the source. Blank lines part the entries; values can stand above or below the compound they belong to.

How the values were obtained:
Format in all cases: biochemical
[1] = biological target: T1, isopenicillin N epimerase (Streptomyces clavuligerus, UniProt P18549); assay: Fluorescamine titration of hydroxylamine-treated epimerase with activity assay of aliquots; conditions: fluorescamine/epimerase ratio of 35 mole/mole
T1 construct: Approximately 250 g of frozen whole cells of S. clavuligerus were thawed and homogenated; made in house; host or cells: Streptomyces clavuligerus NRRL 18491 (native producer; the endogenous enzyme was purified from cell-free extract, not made recombinantly)
T1 sequence (P18549 1-398): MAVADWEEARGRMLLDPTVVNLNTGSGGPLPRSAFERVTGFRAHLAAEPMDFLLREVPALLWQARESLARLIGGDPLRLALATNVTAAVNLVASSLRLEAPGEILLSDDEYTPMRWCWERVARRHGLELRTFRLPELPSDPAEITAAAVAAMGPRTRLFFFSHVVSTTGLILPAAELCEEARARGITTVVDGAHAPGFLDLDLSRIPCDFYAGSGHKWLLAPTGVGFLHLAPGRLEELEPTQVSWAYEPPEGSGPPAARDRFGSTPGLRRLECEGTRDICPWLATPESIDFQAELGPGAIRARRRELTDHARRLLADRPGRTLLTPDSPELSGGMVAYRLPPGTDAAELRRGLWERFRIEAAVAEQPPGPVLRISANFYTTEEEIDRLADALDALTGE
Method: Fluorescamine reacts with primary amino groups, such as the α-amino group of the N-terminal amino residue and the ε-amino groups of lysine in the enzyme to form fluorescent products with maximum excitation and emission wavelength of 390 nm and 475 nm, respectively.
The emission fluorescence of fluorescamine treated epimerase shown in FIG. 2 of the drawings was obtained as follows. The epimerase (0.5 mg/ml) was incubated in 10 mM potassium phosphate, pH 7.0, containing 10 mM hydroxylamine at 0°C for 60 min. After removal of hydroxylamine by gel filtration, the treated enzyme (0.16 mg/ml) in 10 mM potassium phosphate, pH 7.0, was titrated with the indicated amounts of fluorescamine (50 mM) dissolved in dry acetone at 25°C. The sample was excited at 390 nm and the emission fluorescence was followed at 475 nm. […] Simultaneously, aliquots of the enzyme solution were withdrawn and activity for isopenicillin N was assayed. The assay results (% activity) are shown on the curve labeled "●" in FIG. 2.

[2] = biological target: T1, isopenicillin N epimerase; assay: Epimerase activity assay (product formation from isopenicillin N / penicillin N, quantitated by HPLC after o-phthaldialdehyde derivatization)
Method: The epimerase activity was determined by the product formation using isopenicillin N and penicillin N as substrates. Formation of isopenicillin N and penicillin N was quantitated by HPLC. […] The reaction mixture was incubated at 37°C for 20 min. The reaction was terminated by placing the reaction vessel in boiling water for 10 min, immediately cooling the reaction mixture with ice, and then filtering the cold mixture through a 0.45 µm filter.
The derivatives were then analyzed by HPLC. The assay samples were prepared for HPLC as follows. The assay filtrate, obtained as described above, 20 µl was mixed with 5 µl of a derivatizing reagent consisting of 4 mg of o-phthaldialdehyde dissolved in 300 µl of methanol, 250 µl of 0.4 M sodium borate, pH 9.4, 390 µl of water and 60 µl of 1 M N-acetyl-L-cysteine, adjusted to pH 5-6 with sodium hydroxide. After a 2 min reaction time, 200 µl of 50 mM sodium acetate, pH 5.0, were added to the mixture and 50 µl aliquots were used for HPLC analysis.

[3] = biological target: T1, isopenicillin N epimerase; assay: Conversion to apoenzyme with hydroxylamine / reduction with sodium borohydride, then activity
Method: PLP bound to the epimerase was measured by the known phenylhydrazine method and an average value of one mole of PLP per 47,000 g of enzyme was obtained. The haloenzyme was converted to the apoenzyme by incubation at 0°C for 60 min with 10 mM potassium phosphate, pH 7.0, containing 10 mM hydroxylamine followed by gel filtration. The hydroxylamine treated epimerase expressed no activity in the absence of exogenous PLP and the absorption maximum at 420 nm disappeared (FIG. 1, curve 2). The epimerase activity was restored by the addition of PLP to the apoenzyme. The apparent Michelis constant for PLP was determined to be 2.4 µM.
The absorption spectra shown in FIG. 1 of the drawings were obtained as follows. The epimerase (haloenzyme), curve 1, was treated with 10 mM hydroxylamine (apoenzyme), curve 2, or was reduced with 1 mM sodium borohydride, curve 3. After removal of hydroxylamine or sodium borohydride by gel filtration, absorption spectra were run in 10 mM potassium phosphate, pH 7.0, at the enzyme concentration of 0.57 mg/ml with an Aminco DW-2000 spectrophotometer.

[4] = compound as epimerase substrate at 1.4 mM, Isopenicillin N = 100, read-out: Relative Activity (%)
[5] = compound as epimerase substrate at 1.4 mM, Isopenicillin N = 100

Compound: O=C1OC2(OC=C(c3ccccc3)C2=O)c2ccccc21 (stereo not shown) [fluorescamine]
epimerase activity remaining [1]: about 80%

Compound: CC(=O)OCC1=C(C(=O)O)N2C(=O)[C@@H](NC(=O)CCC[C@@H](N)C(=O)O)[C@H]2SC1 [Ceph C, cephalosporin C]
Activity [2, 4]: 0%

Compound: NO [Hydroxylamine]
epimerase activity after treatment ([3]; 10 mM hydroxylamine, 0°C, 60 min, gel filtration, absence of exogenous PLP): no activity
Inhibition (%) ([2]; compound at 0.1 mM): 80%
Inhibition (%) ([2]; compound at 1.0 mM): 95%

Compound: O[C@H](CS)[C@H](O)CS (racemic) [Dithiothreitol]
effect on activity of epimerase [2]: partially stimulated
Activity ([2]; sulfhydryl compound at 0.2 mM): 290 µmol/min/mL
Activity ([2]; sulfhydryl compound at 0.5 mM): 300 µmol/min/mL

Compound: Cc1cc2nc3c(=O)[nH]c(=O)nc-3n(C[C@H](O)[C@H](O)[C@H](O)COP(=O)(O)OP(=O)(O)OC[C@H]3O[C@@H](n4cnc5c(N)ncnc54)[C@H](O)[C@@H]3O)c2cc1C [FAD, Flavin-Adenine Dinucleotide]
Activity ([2]; Table 4, compound at 0.5 mM): 42 µmol/min/mL
inhibition at 500 µM ([2]; compound at 0.5 mM): 80%

Compound: NC(=O)CI [Iodoacetamide]
inhibition at 1000 µM ([2]; compound at 1.0 mM): 28%

Compound: Cc1ncc(COP(=O)(O)O)c(C=O)c1O [PLP, pyridoxal-5′-phosphate]
apparent Michelis constant for PLP ([2]; PLP added to the apoenzyme (hydroxylamine treated)): 2.4 µM

Compound: NNC(=O)c1ccncc1 [Isoniazid]
inhibition at 1000 µM ([2]; compound at 1.0 mM): 23%

Compound: CC(C)NNC(=O)c1ccncc1 [Iproniazid]
inhibition at 1000 µM ([2]; compound at 1.0 mM): 25%

Compound: CC(=O)N[C@@H](CS)C(=O)O [N-acetyl-L-cysteine]
Activity ([2]; sulfhydryl compound at 0.2 mM): 224 µmol/min/mL
Activity ([2]; sulfhydryl compound at 0.5 mM): 190 µmol/min/mL

Compound: O=CC(=O)c1ccccc1 [Phenylglyoxal]
inhibition at 1000 µM ([2]; compound at 1.0 mM): 33%

Compound: N[C@H](CCCC(=O)N[C@@H]1C(=O)N2C(C(=O)O)=C(CO)CS[C@H]12)C(=O)O [DAC, Deacetylcephalosporin C]
Relative Activity (%) [2, 5]: 0%

Compound: CC(C)[C@@H](NC(=O)[C@H](CS)NC(=O)CCC[C@H](N)C(=O)O)C(=O)O [ACV, δ-(L-α-aminoadipoyl)-L-cysteinyl-D-valine]
Activity [2, 4]: 0%

Compound: CC1(C)S[C@@H]2[C@H](NC(=O)CCC[C@H](N)C(=O)O)C(=O)N2[C@H]1C(=O)O [Isopenicillin N]
Activity [2, 4]: 100%

Compound: N[C@@H](CCCC(=O)O)C(=O)O [L-Amino adipic acid]
Activity [2, 4]: 0%

Compound: NC(=O)C1=CN([C@@H]2O[C@H](COP(=O)(O)OP(=O)(O)OC[C@H]3O[C@@H](n4cnc5c(N)ncnc54)[C@H](O)[C@@H]3O)[C@@H](O)[C@H]2O)C=CC1 [NADH, Reduced Nicotinamide Adenine Dinucleotide]
Activity ([2]; Table 4, compound at 1 mM): 184 µmol/min/mL

Compound: [BH4-].[Na+] [sodium borohydride]
catalytic activity after reduction ([3]; reduction of haloenzyme with sodium borohydride (1 mM), PLP did not restore activity): destroyed catalytic activity

Compound: CC(C)(COP(=O)(O)OP(=O)(O)OC[C@H]1O[C@@H](n2cnc3c(N)ncnc32)[C@H](O)[C@@H]1OP(=O)(O)O)[C@@H](O)C(=O)NCCC(=O)NCCS [CoA, Coenzyme A]
Activity ([2]; Table 4, compound at 1 mM): 202 µmol/min/mL

Compound: OCCS [β-mercaptoethanol]
effect on activity of epimerase [2]: partially stimulated
Activity ([2]; sulfhydryl compound at 0.2 mM): 275 µmol/min/mL
Activity ([2]; sulfhydryl compound at 0.5 mM): 281 µmol/min/mL

Compound: Nc1ncnc2c1ncn2[C@@H]1O[C@H](COP(=O)(O)OP(=O)(O)OP(=O)(O)O)[C@@H](O)[C@H]1O [ATP, Adenosine Triphosphate]
Activity ([2]; Table 4, compound at 1 mM): 208 µmol/min/mL

Compound: CCN1C(=O)C=CC1=O [N-Ethylmaleimide]
inhibition at 100 µM ([2]; compound at 0.1 mM): 26%
inhibition at 1000 µM ([2]; compound at 1.0 mM): 45%

Compound: N[C@H](CCCC(=O)O)C(=O)O [D-Amino adipic acid]
Activity [2, 4]: 0%

Compound: CC1(C)S[C@@H]2[C@H](NC(=O)CCC[C@@H](N)C(=O)O)C(=O)N2[C@H]1C(=O)O [Penicillin N]
Activity [2, 4]: 204%

Compound: O=S(=O)([O-])[O-].[Fe+2] [FeSO4]
Activity ([2]; Table 4, compound at 0.1 mM): 150 µmol/min/mL

Compound: CC1=C(C(=O)O)N2C(=O)[C@@H](NC(=O)CCC[C@@H](N)C(=O)O)[C@H]2SC1 [DAOC, Deacetoxycephalosporin C (3-cephem)]
Activity [2, 4]: < 1%

Compound: CC1=CSC2C(NC(=O)CCCC(N)C(=O)O)C(=O)N2C1C(=O)O (stereo not shown) [IsoDAOC, Isodeacetoxycephalosporin C (2-cephem)]
Relative Activity (%) [2, 5]: 0%

Compound: O=S(=O)(F)Cc1ccccc1 [phenylmethylsulfonyl fluoride]
effect on activity of epimerase [2]: do not affect

inhibition at 1000 µM ([2]; compound at 1.0 mM): 23%
Compound: N[C@@H]1CONC1=O [D-Cycloserine]
